In patent US8450374B2, “Pan-antagonists for the androgen receptor and androgen receptor mutants associated with anti-androgen withdrawal” (priority 2009, dated 2013):
Changes are numbered by the printed parent chain. Entries after “also recorded” stand apart in the source; their conditions may differ.

Tests used:
AR W741C = molecular target: T1, AR W741C (Homo sapiens, UniProt P10275, W742C); test: Transcription assay (ARE-luciferase reporter) in CV-1 cells, AR W741C; format: cell-based; parameters: expressed in transfected cells; host or cells: CV-1; settings: for Antagonist efficacy (RLU value at IC50), AR W741C: in competition with 200 nM DHT
T1 sequence (P10275 1-920 W742C): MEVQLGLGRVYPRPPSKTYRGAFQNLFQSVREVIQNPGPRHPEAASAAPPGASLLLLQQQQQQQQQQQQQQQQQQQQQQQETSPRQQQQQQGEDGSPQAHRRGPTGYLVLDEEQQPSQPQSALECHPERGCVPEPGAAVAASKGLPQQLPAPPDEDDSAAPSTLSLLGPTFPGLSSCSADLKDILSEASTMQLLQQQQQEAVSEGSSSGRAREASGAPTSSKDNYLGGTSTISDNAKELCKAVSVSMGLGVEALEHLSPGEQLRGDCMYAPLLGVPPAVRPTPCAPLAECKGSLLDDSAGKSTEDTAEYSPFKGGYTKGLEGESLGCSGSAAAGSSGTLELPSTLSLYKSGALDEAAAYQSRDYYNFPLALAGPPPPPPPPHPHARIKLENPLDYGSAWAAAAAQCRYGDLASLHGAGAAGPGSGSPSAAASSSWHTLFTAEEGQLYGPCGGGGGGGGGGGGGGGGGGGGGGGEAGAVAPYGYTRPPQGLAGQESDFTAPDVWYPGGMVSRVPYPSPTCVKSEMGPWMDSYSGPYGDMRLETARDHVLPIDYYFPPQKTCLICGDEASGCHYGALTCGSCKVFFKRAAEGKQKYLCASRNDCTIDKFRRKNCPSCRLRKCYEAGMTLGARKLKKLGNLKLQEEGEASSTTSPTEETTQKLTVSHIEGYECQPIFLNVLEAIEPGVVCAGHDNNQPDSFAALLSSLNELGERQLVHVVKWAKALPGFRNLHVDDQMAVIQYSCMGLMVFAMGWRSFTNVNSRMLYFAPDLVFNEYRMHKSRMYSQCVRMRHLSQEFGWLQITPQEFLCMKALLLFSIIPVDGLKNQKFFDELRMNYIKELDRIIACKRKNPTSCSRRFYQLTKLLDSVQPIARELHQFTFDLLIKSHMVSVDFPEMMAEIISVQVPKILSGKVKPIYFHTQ
Description: (§1) Twenty-four hours prior to transfection, CV-1 cells were seeded at a density of 45,000 cells per well in 24-well cell culture plates and grown in phenol red free Dulbecco's Modified Eagle Medium (DMEM) supplemented with 10% cosmic calf serum (COS). ARE-luciferase reporter and Renilla-Luc as the internal standard and a prokaryotic expression vector encoding the wild-type androgen receptor or mutant androgen receptor were transfected with Lipofectamine (Invitrogen) following manufacturer's protocol. Five hours after transfection, media was added containing the appropriate concentrations of ligands. The cells were allowed to incubate for 38 hours before harvesting by passive lysis buffer. Cell extracts were immediately assayed using the Dual Luciferase Assay (Promega) with a Perkin-Elmer Microbeta Luminometer. […] Dose-response data was analyzed by nonlinear regression analysis using GraphPad Prism.

AR wt = molecular target: T2, AR wt (Homo sapiens, UniProt P10275); test: Transcription assay (ARE-luciferase reporter) in CV-1 cells, wild-type AR; format: cell-based; parameters: expressed in transfected cells; host or cells: CV-1; settings: for Antagonist efficacy (RLU value at IC50), AR wt: in competition with 3 nM DHT, normalized to 10 nM DHT in hAR(wt)
T2 sequence (P10275 1-920): T1 sequence (P10275 1-920 W742C) with C742W
Description: as §1

[1] = molecular target: T3, AR ligand-binding domain (LBD) (Homo sapiens, UniProt P10275); test: Coactivator peptide recruitment by TR-FRET; format: biochemical; settings: read after 2 h and 4 h incubation
T3 construct: purchased Invitrogen PV8431
T3 sequence (P10275 669-900 limits assumed): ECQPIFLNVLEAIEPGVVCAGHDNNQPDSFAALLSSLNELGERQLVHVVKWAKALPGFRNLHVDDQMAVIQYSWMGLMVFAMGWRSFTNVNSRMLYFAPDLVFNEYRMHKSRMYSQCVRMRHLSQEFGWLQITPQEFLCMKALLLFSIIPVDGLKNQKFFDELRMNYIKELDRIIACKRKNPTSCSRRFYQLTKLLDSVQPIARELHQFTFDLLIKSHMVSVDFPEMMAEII
Description: Briefly, serial dilutions of ligand stocks solutions (in DMSO) were made in TR-FRET coregulator buffer A in a 384 well plate. To each well was added a 4×-stock solution of the AR-LBD followed by a 4× stock solution of fluorescein D-11 peptide and lanthanide-labeled antiGST antibody. The plates were read by time resolved fluorescence after 2 h and 4 h incubation.

[2] = In vivo tolerability of PAN52; parameters: species or system Male C57Bl/6 mice; settings: 25 mg/kg/day IP in 9:1 Cremophor, 3 day or 5 day course
mouse prostates = test: Prostate apoptosis by TUNEL after IP PAN52; format: in vivo, Male C57Bl/6 mice; settings: 25 mg/kg/day IP, day 3 and day 5, TUNEL
Description: FIG. 17. Quantification of apoptotic cells from prostate tissues where mice were treated short-term by intraperitoneal (IP) injection with PAN52 at 25 mg/kg/day versus vehicle control for either 3 days or 5 days (right). Single 20× magnification fields from each of four lobes of mouse prostate glands were counted in each mouse.

LNCaP cells = test: Clonogenic assay / in vitro selection for antiandrogen resistance; format: cell-based; settings: RPMI + 10% DCC-FBS
Description: Clonogenic assays are performed by a modification of the procedure described by Nara et al. (Cancer Research 2003, 63, 149-153). […] Media was changed every three days was and documented weekly. If cells reach 95% confluence, the cells were counted and reseeded at a density of 80,000 cell per well.

| SMILES | IC50 (AR W741C) [µM] | Antagonist efficacy (RLU value at IC50), AR W741C (AR W741C) | IC50 (AR wt) [µM] | Antagonist efficacy (RLU value at IC50), AR wt (AR wt) | Coactivator peptide (D11, FXXLF) association with AR(LBD) [1] | Behavior in grooming or feeding [2] | Apoptosis in prostate compared to control (mouse prostates) | Ability to evade resistance in in vitro selections (resistant LNCaP clones) (LNCaP cells) |
| --- | --- | --- | --- | --- | --- | --- | --- | --- |
| CN(C)CCCOc1cccc(Cc2ccccc2S(=O)(=O)CC(C)(O)C(=O)Nc2ccc(C#N)c(C(F)(F)F)c2)c1 (centres unmarked) [PAN22] | 5.6 ± 0.8 | (53% ± 2.1%) | 2 ± 2.2 | (50% ± 30%) | – | – | – | – |
| CC(O)(CS(=O)(=O)c1ccccc1-c1ccccc1O)C(=O)Nc1ccc(C#N)c(C(F)(F)F)c1 (centres unmarked) [PAN41, N-(4-cyano-3-(trifluoromethyl)phenyl)-2-hydroxy-3-(2′-hydroxybiphenyl-2-ylsulfonyl)-2-methylpropanamide] | 8 ± 2.6 | (50% ± 1.0%) | 1.2 ± 0.5 | (45% ± 14%) | – | – | – | – |
| CN(C)CCCOc1cccc(-c2ccccc2S(=O)(=O)CC(C)(O)C(=O)Nc2ccc(C#N)c(C(F)(F)F)c2)c1 (centres unmarked) [PAN52] | 5.9 ± 2.5 | (50% ± 1.0%) | 3.5 ± 2 | (49% ± 4.4%) | do not show coactivator association | no abnormal behavior in grooming or feeding | increase in apoptosis; also recorded: induced rapid apoptosis | evade resistance |
| CN(C)CCCOc1ccc(-c2ccccc2S(=O)(=O)CC(C)(O)C(=O)Nc2ccc(C#N)c(C(F)(F)F)c2)cc1 (centres unmarked) [PAN62] | 15 ± 17 | (56% ± 5.7%) | 2.3 ± 0.9 | (51% ± 9.1%) | – | – | – | – |
